This passage reports TGI and GI50 results from PubChem BioAssay (NCI).

Several values for one entry are separate records, joined by “and”; a condition that tells them apart may be missing. Equal entries are not always repeated.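 Values below derive from 48-hour exposures of cells grown in 96-well plates, with endpoints linearly interpolated between the two concentrations bracketing the appropriate inhibition level. GI50 marks 50% less growth. At the TGI there is no net growth.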 Where only a bound is given, the exact number is not on record here.

Test systems include RPMI-8226 leukemia; HOP-62 NSCLC; U251 CNS; OVCAR-5 ovarian; NCI-H23 lung; IGROV1 ovarian; K-562 leukemia; A498 renal; KM12 colon; ACHN renal; HOP-92 NSCLC; SK-OV-3 ovarian; M14 melanoma; MCF7 breast; PC-3 prostate; NCI/ADR-RES ovarian.
Holding throughout (assay): inhibition of tumour cell growth, NCI panel, 48 h

`COc1cc(CNc2ccc(C)cc2)cc(OC)c1OC`: the TGI is over 50.2 µM with RPMI-8226 leukemia; over 100 µM with HOP-62 NSCLC; 1.2 µM with U251 CNS; over 100 µM in the assay on OVCAR-5 ovarian; 3.08 µM in the assay on NCI-H23 lung; over 100 µM with IGROV1 ovarian. For the same compound, the TGI in the assay on K-562 leukemia was > 42.3 µM and 25 µM; in the assay with A498 renal, over 74.2 µM; with KM12 colon, 2.33 µM; in the assay on ACHN renal, over 100 µM; in the assay on HOP-92 NSCLC it was over 100 µM; in the assay with SK-OV-3 ovarian, 0.825 µM and 1.3 µM. In the assay with M14 melanoma, this compound displayed a TGI of over 100 µM. Also, the GI50 in the assay on A498 renal was over 37.5 µM; in the assay on KM12 colon, 104 nM and 341 nM; with ACHN renal it was 674 nM and 216 nM; in the assay on M14 melanoma it was 0.124 µM.

As for `COC(=O)/C=C1/OC(c2ccccc2)=C(Br)C1=O`, the TGI in the assay with RPMI-8226 leukemia, in the assay on HOP-62 NSCLC, in the assay with MCF7 breast, in the assay with U251 CNS, in the assay with OVCAR-5 ovarian and with NCI-H23 lung was over 100 µM each time. For the same compound, the TGI in the assay with K-562 leukemia, with A498 renal, in the assay with KM12 colon, in the assay on ACHN renal, in the assay on HOP-92 NSCLC and with SK-OV-3 ovarian was over 100 µM in each case. For the same compound, the TGI in the assay on PC-3 prostate and in the assay on M14 melanoma was over 100 µM in each case.

As for `CC1=CC(=O)c2ccc3c4ccccc4n(C)c3c2C1=O`, the TGI was over 100 µM in the assay on RPMI-8226 leukemia; over 100 µM in the assay with HOP-62 NSCLC; over 100 µM in the assay on MCF7 breast; over 100 µM in the assay with U251 CNS; over 100 µM in the assay on OVCAR-5 ovarian; over 92 µM in the assay on NCI-H23 lung. Besides, the TGI in the assay on IGROV1 ovarian, in the assay on K-562 leukemia, in the assay on A498 renal, in the assay on KM12 colon, with ACHN renal and in the assay on HOP-92 NSCLC was over 100 µM each time. Also, the TGI in the assay with SK-OV-3 ovarian is over 100 µM; with M14 melanoma it was 64.4 µM; with NCI/ADR-RES ovarian, over 100 µM.

`COC(=O)c1ccc(C)cc1C1CN=NC12Cc1c(C)cccc1C2=O` (stereo not drawn): the TGI is over 75.3 µM in the assay on RPMI-8226 leukemia; over 100 µM in the assay with HOP-62 NSCLC; over 100 µM with U251 CNS; over 100 µM in the assay with OVCAR-5 ovarian; over 100 µM with NCI-H23 lung; 98 µM in the assay on IGROV1 ovarian. In addition, the TGI is over 100 µM with K-562 leukemia; over 100 µM with A498 renal; over 84.8 µM in the assay with KM12 colon; over 100 µM in the assay on ACHN renal; 97 µM in the assay with HOP-92 NSCLC; over 93.4 µM in the assay with SK-OV-3 ovarian. The TGI was over 100 µM with PC-3 prostate, over 100 µM with M14 melanoma and 81.4 µM in the assay on NCI/ADR-RES ovarian. Besides, the GI50 in the assay with M14 melanoma is 25.9 µM.

Consider `CCCCCCCCC#CCCCCCCC(F)C(=O)O` (stereo not drawn), for which the TGI in the assay on RPMI-8226 leukemia, with HOP-62 NSCLC, in the assay with U251 CNS, with OVCAR-5 ovarian, in the assay with NCI-H23 lung and in the assay with IGROV1 ovarian was over 100 µM in each case. The TGI with K-562 leukemia, in the assay with A498 renal, in the assay with KM12 colon, in the assay on ACHN renal, in the assay on HOP-92 NSCLC and in the assay on SK-OV-3 ovarian was over 100 µM throughout. The TGI in the assay with PC-3 prostate, with M14 melanoma and with NCI/ADR-RES ovarian was over 100 µM throughout.

For `C1=C(c2ccccc2)NC2=N[C@H]3CCCC[C@@H]3N2C1c1ccccc1` (stereo partly drawn), the TGI came to 49.8 µM in the assay on RPMI-8226 leukemia; 26.1 µM in the assay with U251 CNS; 26.3 µM with OVCAR-5 ovarian; 25.8 µM in the assay with NCI-H23 lung; 26 µM in the assay on IGROV1 ovarian; 72.2 µM in the assay on K-562 leukemia. In addition, the TGI in the assay with A498 renal was 30.2 µM; in the assay on KM12 colon, 22.9 µM; with ACHN renal, 26.6 µM; in the assay with HOP-92 NSCLC it was 25.2 µM; with SK-OV-3 ovarian, 29.3 µM; in the assay on PC-3 prostate it was 23.9 µM. In addition, the TGI in the assay on M14 melanoma is 25.5 µM; in the assay on NCI/ADR-RES ovarian, 28.7 µM.

For the compound `N=c1oc2ccccc2cc1C(=O)Nc1ccccn1`, the TGI in the assay with RPMI-8226 leukemia, with HOP-62 NSCLC, with U251 CNS, in the assay on OVCAR-5 ovarian, with NCI-H23 lung and with IGROV1 ovarian was over 100 µM throughout. In addition, the TGI with K-562 leukemia, with A498 renal, with KM12 colon, in the assay on ACHN renal, in the assay with HOP-92 NSCLC and in the assay on SK-OV-3 ovarian was over 100 µM in each case. Besides, the TGI in the assay on M14 melanoma and in the assay on NCI/ADR-RES ovarian was over 100 µM in each case.

As to `CCc1cccc(CC)c1Nc1nc(-c2ccccc2-c2ccccc2)cs1`, the TGI with RPMI-8226 leukemia, in the assay on HOP-62 NSCLC, in the assay on MCF7 breast, in the assay on U251 CNS, in the assay with OVCAR-5 ovarian and with NCI-H23 lung was over 100 µM each time. For the same compound, the TGI in the assay with IGROV1 ovarian, in the assay on K-562 leukemia, in the assay with A498 renal, with KM12 colon, with ACHN renal and in the assay on HOP-92 NSCLC was over 100 µM in each case. For the same compound, the TGI with SK-OV-3 ovarian, with PC-3 prostate and in the assay on M14 melanoma was over 100 µM throughout.

Consider `CC[n+]1c(/C=C/c2cc(C(=O)OC)n3c2sc2ccccc23)sc2ccccc21`, for which the TGI came out at 34.8 µM in the assay with HOP-62 NSCLC; 37.3 µM in the assay with OVCAR-5 ovarian; 32.9 µM in the assay on IGROV1 ovarian; 31.2 µM in the assay on K-562 leukemia; 29.1 µM with KM12 colon; 36.2 µM in the assay with ACHN renal. Further, the values for the TGI in the assay with HOP-92 NSCLC, in the assay on SK-OV-3 ovarian and in the assay with M14 melanoma were 31.6 µM, 34 µM and 34.9 µM, respectively.

For the compound `C=Cc1c(-c2ccccc2)cnc2[nH]c3ccccc3c12`, the TGI in the assay with RPMI-8226 leukemia, in the assay with HOP-62 NSCLC, in the assay on U251 CNS, with OVCAR-5 ovarian, in the assay on NCI-H23 lung and in the assay on IGROV1 ovarian was over 50 µM in each case. For the same compound, the TGI with K-562 leukemia, in the assay on A498 renal, in the assay with KM12 colon, with ACHN renal, with SK-OV-3 ovarian and with M14 melanoma was over 50 µM in each case.

Consider `C#CCNC(CCCN=C(N)N)C(=O)O` (stereo not drawn), for which the TGI in the assay with RPMI-8226 leukemia, with HOP-62 NSCLC, in the assay with U251 CNS, in the assay on OVCAR-5 ovarian, with NCI-H23 lung and in the assay on IGROV1 ovarian was over 100 µM throughout. Further, the TGI in the assay on K-562 leukemia, in the assay on A498 renal, with KM12 colon, in the assay with ACHN renal, in the assay on HOP-92 NSCLC and in the assay with SK-OV-3 ovarian was over 100 µM throughout. The TGI with PC-3 prostate, with M14 melanoma and in the assay with NCI/ADR-RES ovarian was over 100 µM in each case.

For the compound `CC1(C)C2CCC1(C)C(NC(=O)COCCOCC(N)=O)C2` (stereo not drawn), the TGI in the assay with HOP-62 NSCLC, in the assay with MCF7 breast, in the assay with U251 CNS, in the assay with OVCAR-5 ovarian, in the assay with NCI-H23 lung and with IGROV1 ovarian was over 100 µM throughout. Moreover, the TGI in the assay with K-562 leukemia, in the assay on A498 renal, in the assay with KM12 colon, in the assay on ACHN renal, in the assay on HOP-92 NSCLC and in the assay with SK-OV-3 ovarian was over 100 µM throughout. Besides, the TGI with PC-3 prostate and with M14 melanoma was over 100 µM in each case.

As for `CN(C)/C=N/S(=O)(=O)c1nn2c(C=O)c(-c3ccc(-c4ccccc4)cc3)nc2s1`, the TGI in the assay with RPMI-8226 leukemia turned out to be 3 µM; in the assay on HOP-62 NSCLC, 22.9 µM; with U251 CNS, 3.17 µM; in the assay with OVCAR-5 ovarian, 25.3 µM; in the assay with NCI-H23 lung it was 4.55 µM; in the assay on IGROV1 ovarian, 2.59 µM. Besides, the TGI amounted to 47.5 µM in the assay on A498 renal; 7.36 µM with KM12 colon; 3.18 µM in the assay with ACHN renal; 10.1 µM in the assay on HOP-92 NSCLC; 36.2 µM in the assay with SK-OV-3 ovarian; 5.07 µM in the assay with PC-3 prostate. The TGI was 3.12 µM in the assay with M14 melanoma and over 86.8 µM in the assay on NCI/ADR-RES ovarian.

For the compound `COc1cccc(C2c3cc4c(cc3OC(N3CCCC3)C2c2ccccc2)OCO4)c1O` (stereo not drawn), the TGI with RPMI-8226 leukemia came out at 31 µM; with HOP-62 NSCLC, 47.6 µM; in the assay on MCF7 breast, 32.6 µM; in the assay with OVCAR-5 ovarian, 75.2 µM; in the assay on NCI-H23 lung, 36.2 µM; in the assay with IGROV1 ovarian, 47.8 µM. For the same compound, the TGI in the assay with K-562 leukemia worked out at 42.6 µM; in the assay on KM12 colon, 18.7 µM; in the assay on ACHN renal it was 25.8 µM; in the assay with PC-3 prostate it was 27 µM; with M14 melanoma it was 25.4 µM; in the assay with NCI/ADR-RES ovarian, 67.2 µM.

Turning to `CC(=O)NC1=C(NCCO)C(=O)c2ccccc2C1=O`, the TGI in the assay with HOP-62 NSCLC, with U251 CNS, in the assay with NCI-H23 lung, in the assay on IGROV1 ovarian, in the assay on K-562 leukemia and in the assay with KM12 colon was over 50 µM throughout. Besides, the TGI with ACHN renal, in the assay on SK-OV-3 ovarian and in the assay on M14 melanoma was over 50 µM each time.

Regarding `CN1CC[C@@]2(c3cccc(O)c3)CC(=O)/C(=C/c3ccc(Cl)c(Cl)c3)[C@H]1C2`, the TGI stood at 4.37 µM with RPMI-8226 leukemia; 6.2 µM in the assay with HOP-62 NSCLC; 2.67 µM with U251 CNS; 14.4 µM in the assay on OVCAR-5 ovarian; 15.9 µM with NCI-H23 lung; 5.65 µM in the assay on IGROV1 ovarian. Further, the TGI in the assay on K-562 leukemia is 3.66 µM; in the assay with A498 renal, 26.5 µM; in the assay with ACHN renal, 3.38 µM; with HOP-92 NSCLC, 18.1 µM; with PC-3 prostate it was 3.07 µM; in the assay with M14 melanoma it was 5.02 µM. The TGI in the assay on NCI/ADR-RES ovarian worked out at 7.09 µM.
